Entries after “also recorded” stand apart in the source; their conditions may differ. Where two headings read alike, the source gives them in different places. Peptide text beside a SMILES is read from it.
Assays:
[1] = GLP-2(1-33); DPP IV degradation and renal clearance; cited from earlier work
rats [2] = assay: Preclinical irinotecan-induced diarrhea and intestinal damage in rats
rats [3] = assay: Preclinical 5-Fluorouracil (5-FU)-induced small intestinal atrophy and diarrhea in rats; conditions: 400 nmol/kg
[4] = tested on: patients with colorectal cancer receiving 5-FU based chemotherapy (FOLFOX4 or FOLFIRI regimen); assay: Study TIDE-11-10 safety (treatment-emergent adverse events); assay type: in vivo, human; conditions: elsiglutide group, 69 patients, 24 mg/day s.c. for 4 days
Source text: (§1) In studies TIDE-09-04 and TIDE-11-10 the overall pattern of TEAEs was as expected for patients with cancer receiving chemotherapy. In both studies the safety profiles of elsiglutide and placebo were generally similar. More patients in the elsiglutide group reported TEAEs compared to patients in the placebo group, mostly due to injection site reactions in the elsiglutide group.
(§2) In study TIDE-09-04, out of the 28 treated patients (21 on active treatment and 7 on placebo), 9 (32.1%; 7 patients in elsiglutide group and 2 patients in placebo group) experienced at least one TEAE judged by the investigator to be at least possibly related to treatment. In study TIDE-11-10, out of the 138 treated patients (69 on elsiglutide and 69 on placebo), 8 (11.6%), all in the elsiglutide group, had at least one TEAE judged by the investigator to be at least possibly related to study-drug. The most frequent related TEAEs overall in both studies were injection site events (in particular injection site erythema and injection site pain) followed by constipation.
138 patients received a daily dose of 24 mg elsiglutide (or placebo practically identical in composition to the active study drug) via a single s.c. injection for 4 consecutive days, starting from the first day of chemotherapy administration. […] Safety and tolerability were monitored throughout the study.

[5] = tested on: patients with colorectal cancer receiving 5-FU based chemotherapy (FOLFOX4 or FOLFIRI regimen); assay: Study TIDE-11-10 phase II proof of concept, prevention of chemotherapy induced diarrhea (CID); assay type: in vivo, human
Protocol: (§3) The formulation used in clinical trials is a lyophilized sterile powder for s.c. administration after reconstitution with sterile water for injection. […] This study also included an evaluation of the levels of citrulline, an amino acid mainly produced by enterocytes, a decrease of which is indicative of an intestinal mucosal damage following chemotherapy. […] In addition, safety and tolerability of the administered repeated doses of elsiglutide were evaluated, and the pharmacokinetics (PK) of elsiglutide and its metabolites ZP2242 and ZP2712 were investigated in a subset of patients in each treatment arm.
Methodology: This was a phase II, multicenter, double-blind, randomized, placebo-controlled, two-stage, proof of concept study with an interim futility analysis in colorectal cancer patients receiving 5-FU-based chemotherapy (FOLFOX4 or FOLFIRI) and administered elsiglutide subcutaneously (s.c.) for 4 consecutive days.
138 patients received a daily dose of 24 mg elsiglutide (or placebo practically identical in composition to the active study drug) via a single s.c. injection for 4 consecutive days, starting from the first day of chemotherapy administration. The patients were hospitalized at least until Day 3. Further visits were scheduled for Days 4, 5 and 15 and for a Follow-up Visit on Day 28-32. Safety and tolerability were monitored throughout the study.
Diagnosis and Main Criteria for Inclusion: Female and male patients of at least 18 years of age with confirmed diagnosis of colorectal cancer and an Eastern Cooperative Oncology
Group (ECOG) performance status ≦2, chemotherapy-naïve, and scheduled to receive a FOLFOX4 or FOLFIRI chemotherapy regimen.
Efficacy: The endpoint of primary interest was: • Number of patients experiencing no diarrhea from Day 1 to Day 14
Secondary endpoints were: • Proportion of patients experiencing grades ≧2 diarrhea at each day from Day 1 to Day 14 according to National Cancer Institute Common Terminology Criteria for Adverse Events (NCI-CTCAE v. 4.03); • Worst grade of diarrhea according to NCI-CTCAE at each day from Day 1 to Day 14; • Time to occurrence of diarrhea, defined as the first day in which a grade ≧1 diarrhea was assessed (from Day 1 to day 14); • Number of days with presence of grade ≧1 diarrhea (from Day 1 to Day 14); • Number of days with presence of grade ≧2 diarrhea (from Day 1 to Day 14); • Number of days with presence of at least one bowel movement accompanied by urgency (from Day 1 to 14); • Number of days with presence of at least one episode of fecal incontinence (from Day 1 to 14); • Proportion of patients who required i.v. fluids due to CID (from Day 1 to 14); • Proportion of patients who required changes to the primary therapy (chemotherapy dose reduction, delay or change to regimen) due to CID as of Day 2, Day 14 and as of Day 28; • Proportion of patients who used rescue medication (i.e. medication used for treatment of diarrhea) from Day 1 to Day 14.
(§4) In addition, the proportion of patients who were limited concerning self-care Activities of Daily Living (ADL), the number of stools per day, the number of bowel movements accompanied by urgency per day, and the number of episodes of fecal incontinence per day were summarized for Day 1 to Day 14. Mean blood concentrations of citrulline (a biomarker for intestinal integrity, a decrease being indicative of an intestinal mucosal damage following chemotherapy) were summarized by treatment group for baseline, Day 5, and Day 15 including changes compared to baseline.

[6] = Clinical pharmacokinetics of elsiglutide and its metabolites (studies 06-013, TIDE-09-04, TIDE-11-10)
Protocol: Data on human exposure to elsiglutide generated so far originate from three clinical trials, one performed in healthy subjects (study 06-013) and two in cancer patients (TIDE-09-04, TIDE-11-10). The main objective of the first two studies was the evaluation of the safety, tolerability and maximum tolerated dose (MTD) of ascending elsiglutide doses administered as s.c. (both studies) and i.v. (only study 06-013) bolus injections. In study 06-013 elsiglutide was administered as single i.v. or s.c. bolus, while in study TIDE-09-04 each dose was administered as s.c. bolus on 4 consecutive days. Study TIDE-11-10 was a phase II proof of concept study that mainly evaluated the efficacy of elsiglutide administered as 24 mg daily s.c. bolus injections for 4 consecutive days in preventing CID in patients with colorectal cancer receiving 5-FU based chemotherapy (FOLFOX4 or FOLFIRI regimen). The secondary objectives of all three studies included the evaluation of the pharmacokinetics of elsiglutide and its major metabolites in humans.

healthy volunteers = assay: Study 06-013 dose-escalation, safety, tolerability and MTD, single i.v. or s.c. bolus in healthy subjects; assay type: in vivo, human
Source text: Thirteen of 27 subjects included in this study experienced at least 1 treatment-emergent adverse event (TEAE) judged by the investigator as having either a possible, probable or definitive relation to the study medication. The most commonly reported related TEAEs being postural dizziness, nausea, and injection site erythema.

[7] = tested on: healthy subjects and colon and colorectal cancer patients; assay: Human safety data across the clinical studies (06-013, TIDE-09-04, TIDE-11-10); assay type: in vivo
Source text: (§5) Safety data in humans are derived from two phase I dose-escalation studies and one phase II study, which included 202 human subjects (36 healthy subjects and 166 colon and colorectal cancer patients receiving 5-FU-based chemotherapy), 117 of whom received active treatment.
as §1

citrulline = assay: Study TIDE-11-10 mean blood concentrations of citrulline (biomarker for intestinal integrity); assay type: in vivo, human
Protocol: as §3, §4

[8] = tested on: cancer patients receiving 5-FU-based chemotherapy; assay: Study TIDE-09-04 dose-escalation, safety and tolerability, s.c. bolus on 4 consecutive days in cancer patients; assay type: in vivo, human
Source text: as §5
In the second dose-escalation study (TIDE-09-04) in cancer patients an independent data safety monitoring board supervised the dose escalation process.
as §2

[9] = Day 1 to Day 14, Full Analysis Set, 24 mg/day, N = 69
[10] = Day 1 to Day 14, Intent-to-treat Set, 24 mg/day, N = 69

HADGSFSDEMNTILDNLAARDFINWLIQTKITD [GLP-2]
half-life [1]: about 7 minutes

CC[C@H](C)[C@H](NC(=O)[C@H](CC(C)C)NC(=O)[C@H](Cc1c[nH]c2ccccc12)NC(=O)[C@H](C)NC(=O)[C@@H](NC(=O)[C@H](Cc1ccccc1)NC(=O)[C@H](CC(=O)O)NC(=O)[C@H](CCCNC(=N)N)NC(=O)[C@H](C)NC(=O)[C@H](C)NC(=O)[C@H](CC(C)C)NC(=O)[C@H](C)NC(=O)[C@H](CC(=O)O)NC(=O)[C@H](CC(C)C)NC(=O)[C@@H](NC(=O)[C@@H](NC(=O)[C@H](CO)NC(=O)[C@H](CC(C)C)NC(=O)[C@H](CCC(=O)O)NC(=O)[C@H](CO)NC(=O)[C@H](CO)NC(=O)[C@H](Cc1ccccc1)NC(=O)[C@H](CO)NC(=O)CNC(=O)[C@H](CCC(=O)O)NC(=O)CNC(=O)[C@@H](N)Cc1c[nH]cn1)[C@@H](C)O)[C@@H](C)CC)[C@@H](C)CC)C(=O)N[C@@H](C)C(=O)N[C@H](C(=O)N[C@@H](CCCCN)C(=O)N[C@H](C(=O)N[C@H](C(=O)N[C@@H](CC(=O)O)C(=O)N[C@@H](CCCCN)C(=O)N[C@@H](CCCCN)C(=O)N[C@@H](CCCCN)C(=O)N[C@@H](CCCCN)C(=O)N[C@@H](CCCCN)C(=O)N[C@@H](CCCCN)C(N)=O)[C@@H](C)O)[C@@H](C)CC)[C@@H](C)O [elsiglutide] (H-HGEGSFSSELSTILDALAARDFIAWLIATKITDKKKKKK-NH2; N-terminus assumed)
body weight loss and lethality (irinotecan model) (rats [2]): decreases
irinotecan induced severe intestinal damage (histopathological observations) (rats [2]): drastically reduces
severity of irinotecan-induced diarrhea, including late-onset diarrhea (rats [2]): decreases
5-Fluorouracil (5-FU)-induced small intestinal atrophy and diarrhea (rats [3]): prevents
body weight loss (5-FU model) (rats [3]): attenuates
mortality (5-FU model) (rats [3]): decreases
patients with at least one TEAE at least possibly related to study-drug (number) [4]: 8 patients
patients with at least one TEAE at least possibly related to study-drug (percentage) [4]: 11.6%
effect on the occurrence of grade ≧2 diarrhea ([5]; 24 mg daily s.c. for 4 consecutive days): preventive effect
evidence of efficacy ([5]; 24 mg/day s.c. on 4 consecutive days): some evidence of efficacy
Worst grade of diarrhea NCI-CTCAE v4.03: Grade 0, % [5, 9]: (62.3) %
Worst grade of diarrhea NCI-CTCAE v4.03: Grade 1, % [5, 9]: (30.4) %
Worst grade of diarrhea NCI-CTCAE v4.03: Grade 2, % [5, 9]: (5.8) %
Worst grade of diarrhea NCI-CTCAE v4.03: Grade 3, % [5, 9]: (1.4) %
Worst grade of diarrhea NCI-CTCAE v4.03: Grade <2, % [5, 9]: (92.8) %
Worst grade of diarrhea NCI-CTCAE v4.03: Grade ≧2, % [5, 9]: (7.2) %
Non-responders, % [5, 10]: (37.7) %
Responders (patients experiencing no diarrhea), % [5, 10]: (62.3) %
superiority of elsiglutide over placebo in number of responders ([5]; overall trial, Stage 1 and Stage 2, 69 patients per group): could not be statistically demonstrated
half-life ([6]; human, plasma, iv): 24 min
bioavailability ([6]; human, plasma, subcutaneous): 0.29
dose dependence of pharmacokinetics (Cmax and AUC increases proportional to dose) ([6]; study TIDE-09-04, s.c. on 4 consecutive days): dose independent
subjects with at least 1 TEAE with possible, probable or definitive relation to study medication (healthy volunteers; of 27 subjects, study 06-013): Thirteen
maximum tolerated dose (MTD) i.v. (healthy volunteers; single i.v. bolus, healthy volunteers, stopping-rule AE at 19.2 mg i.v.): 9.6 mg
maximum tolerated dose (MTD) s.c. (healthy volunteers; single s.c. bolus, healthy volunteers, stopping-rule AE at 6 mg s.c.): 3 mg
deaths or SAEs related to the study drug ([7]; all three studies): No deaths or SAEs related to the study drug
serious or severe injection site reactions ([7]; studies TIDE-09-04 and TIDE-11-10): No serious or severe injection site reactions
change of mean citrulline level between Baseline and Day 5, compared with placebo group (citrulline; Baseline to Day 5): less pronounced decrease
Mean citrulline level at Day 15 (citrulline; Day 15, elsiglutide group, 24 mg/day on days 1-4): 36.5 µmol/L
Mean citrulline level at baseline (citrulline; baseline, elsiglutide group): 33.5 µmol/L
dose limiting toxicities ([8]; 93 mg/day administered for 4 consecutive days): no dose limiting toxicity; also recorded: no dose limiting toxicities
patients with at least one TEAE at least possibly related to treatment ([8]; elsiglutide group, 21 on active treatment, TIDE-09-04): 7 patients

From patent US20160067311A1, “USE OF ELSIGLUTIDE TO TREAT GASTROINTESTINAL MUCOSITIS INCLUDING CHEMOTHERAPY-INDUCED DIARRHEA” (Helsinn Healthcare SA, priority 2014, published 2016)
